# Measured values from patent US20240207457A1, “CANCER-SPECIFIC POLYPEPTIDE AND USE THEREOF” (THE CATHOLIC UNIVERSITY OF KOREA INDUSTRY-ACADEMIC …, priority 2021, published 2024).
# Where no end group is shown, it is not given here.
# T1: LGR5 protein on gastric cancer cell lines (AGS, MKN45, MKN28) (UniProt O75473 22-907, limits assumed)
# T1 construct: whole, on cells; also called LGR5 receptor; gastric cancer cell lines containing LGR5
# T1 sequence (looked up): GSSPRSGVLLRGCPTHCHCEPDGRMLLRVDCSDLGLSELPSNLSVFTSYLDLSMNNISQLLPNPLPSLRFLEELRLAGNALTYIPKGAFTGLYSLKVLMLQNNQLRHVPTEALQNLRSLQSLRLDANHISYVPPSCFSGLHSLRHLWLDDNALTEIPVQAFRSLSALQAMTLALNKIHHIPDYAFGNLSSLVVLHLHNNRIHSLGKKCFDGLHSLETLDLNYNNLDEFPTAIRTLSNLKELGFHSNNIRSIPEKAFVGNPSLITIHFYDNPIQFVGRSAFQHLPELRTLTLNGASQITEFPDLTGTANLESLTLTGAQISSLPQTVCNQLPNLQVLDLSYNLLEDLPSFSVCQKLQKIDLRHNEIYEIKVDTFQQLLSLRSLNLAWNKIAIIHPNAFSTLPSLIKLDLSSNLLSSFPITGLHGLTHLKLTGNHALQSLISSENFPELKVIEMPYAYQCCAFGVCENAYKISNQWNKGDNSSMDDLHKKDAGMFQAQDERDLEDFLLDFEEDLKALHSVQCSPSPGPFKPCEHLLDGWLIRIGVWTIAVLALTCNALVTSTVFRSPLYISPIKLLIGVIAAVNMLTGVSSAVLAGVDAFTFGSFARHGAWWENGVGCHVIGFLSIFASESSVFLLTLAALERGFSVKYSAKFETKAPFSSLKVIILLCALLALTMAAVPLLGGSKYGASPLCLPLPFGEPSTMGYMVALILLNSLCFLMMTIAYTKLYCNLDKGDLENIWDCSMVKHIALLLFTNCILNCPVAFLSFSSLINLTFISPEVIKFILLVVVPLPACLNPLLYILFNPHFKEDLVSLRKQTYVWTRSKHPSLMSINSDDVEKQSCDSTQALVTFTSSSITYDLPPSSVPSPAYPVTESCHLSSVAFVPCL
# B1: Ce6-peptide (STCTRSR peptide of SEQ ID NO: 1 bound to chlorin e6) (peptide)
# peptide: STCTRSR
# modifications: also: chlorin e6 bound to the peptide (site not given here)
# notes: also called photosensitizer-peptide composite
# Legend:
# [1] = tested on: MKN45 xenograft mouse model; experiment: Ex vivo tumor-targeting analysis of extracted organs (IVIS); assay type: in vivo, mice; conditions: organs extracted 4 hours after injection, 5 mg/kg
# Procedure: To confirm the tumor-targeting ability of Ce6-peptide, an in vivo targeting experiment was performed on an MKN45 xenograft mouse model. Ce6 and the Ce6-peptide were injected at a concentration of 5 mg/kg into the tail vein of mice in which a tumor with a diameter of about 8 mm was developed. After 4 hours, the concentration of Ce6 in the tumor was confirmed using an in vivo imaging system (IVIS).
# In addition, organs were extracted from each subject 4 hours after the injection to analyze tumor-targeting ability ex vivo using an IVIS.
# [2] = tested on: MKN45 cells; experiment: Photodynamic therapy cytotoxicity with laser irradiation; assay type: cell-based; conditions: laser 10 J, 500 mW, 3 cm, 2 minutes 35 seconds
# Procedure: To analyze cytotoxicity through photodynamic therapy, MKN45 cells were treated with Ce6 and the Ce6-peptide at concentrations of 0, 1, 5, 10, 20, 50, 100 nM, and 1 μM and then irradiated with a laser beam based on 10 J, 500 mW, and 3 cm for 2 minutes and 35 seconds.
# [3] = tested on: MKN45 xenograft mouse model; experiment: Local tumor treatment efficacy through peptide and laser irradiation; assay type: in vivo, mice; conditions: for body weight during the treatment period: laser 200 J
# Procedure: To confirm local tumor treatment efficacy using the peptide, an experiment was performed by dividing the mice in Example 6 into four groups: an untreated group, a group irradiated with a laser beam, a group irradiated with a laser beam after Ce6 administration, and a group irradiated with a laser beam after Ce6-peptide administration. Ce6 and the Ce6-peptide were administered at a concentration of 5 mg/kg into the tail vein. When 4 hours elapsed, the tumor area was irradiated with a laser beam for 9 minutes under conditions based on 200 J and 300 mW.
# [4] = tested on: MKN45 cells; experiment: Dark toxicity experiment without laser irradiation; assay type: cell-based; conditions: for dark toxicity: 0 to 100 nM and 1 μM, FIGS. 8A and 8B
# Procedure: To analyze cytotoxicity through photodynamic therapy, MKN45 cells were treated with Ce6 and the Ce6-peptide at concentrations of 0, 1, 5, 10, 20, 50, 100 nM, […]
# [5] = tested on: AGS, MKN45, and MKN28, the gastric cancer cell lines (vs CCD841 normal colonic epithelial cell line); experiment: Immunochemical staining of FITC-bound phage and peptide (attachment ability); assay type: cell-based; conditions: bound to FITC, FIG. 2
# Description: (§1) To confirm the attachment abilities, phage No. 24 and the peptide were each independently bound to FITC to perform immunochemical staining.
# [6] = tested on: HEK293T kidney cells not containing the LGR5 receptor; experiment: Immunochemical staining of FITC-peptide in HEK293T cells; assay type: cell-based; conditions: bound to FITC, FIG. 3
# Description: as §1
# [7] = tested on: tumor tissue; experiment: Tumor tissue treated with FITC-bound target and negative control peptide; conditions: peptides binding to FITC; FIG. 13
# Procedure: To confirm the tumor-targeting ability of the target peptide, the tumor tissue was treated with both the target peptide and a negative control peptide, not having the attachment ability to tumors, binding to FITC. The negative control peptide is a peptide made by randomly mixing the amino acid positions of the […] peptide sequence “QLMRPPV” (SEQ ID NO: 2).
# [8] = tested on: MKN45 xenograft model; experiment: Targeting ability in vivo of Cy5.5-binding peptide; parameters: species or system mice; conditions: FIGS. 6A and 6B
# Procedure: Through Examples 1 to 3, the gastric cancer-targeting ability of the peptide was confirmed at the cellular level. Accordingly, to confirm the targeting ability in vivo, a xenograft model was created using MKN45 in 5-week-old immunodeficient mice. Then, Cy5.5-binding peptide was injected at a concentration of 50 nM into the tail vein.
# [9] = tested on: MKN45 cells; experiment: ROS detection by DCF-DA staining; assay type: cell-based; conditions: Ce6-peptide with laser irradiation, FIG. 9
# Procedure: To confirm whether cells were killed by photodynamic therapy, DCF-DA staining was performed to check whether cell death, the mechanism of the corresponding treatment, was caused by reactive oxygen species (ROS).
# [10] = tested on: AGS, MKN45, and MKN28 gastric cancer cell lines and CCD841 normal cells; experiment: Cellular uptake of Ce6-peptide; assay type: cell-based; conditions: 10 uM; FIG. 7
# Procedure: (§2) To confirm the tumor-targeting and therapeutic efficacies of the peptide, photodynamic therapy using chlorin e6 (Ce6), a photosensitizer, was performed. First, to confirm the degree of cellular uptake of Ce6-peptide, AGS, MKN45, and MKN28, gastric cancer cell lines, and CCD841 cells, normal cells, were each independently treated with the Ce6-peptide at a concentration of 10 uM.
# [11] = tested on: MKN45 intraperitoneal metastasis model; experiment: Peptide targeting ability in intraperitoneal metastasis model (IVIS); assay type: in vivo, Balb/c nude mice; conditions: 5 mg/kg
# Procedure: Through Example 6, the targeting ability in vivo of the peptide was confirmed in the xenograft model using MKN45, the gastric cancer cell line. Accordingly, to further verify the targeting ability in an intraperitoneal metastasis model, the same MKN45 cell line was injected intraperitoneally, and the targeting ability of the peptide was further verified.
# Intraperitoneal metastasis was confirmed within two weeks by injecting 1×10^7 of the GFP-tagged MKN45 cell line into 5-week-old Balb/c nude mice. As a result, as shown in FIGS. 14A and 14B, additional infiltration of the cells into the liver, kidney, and spleen tissues and large tumors with a size of about 2 cm were observed.
# To confirm the targeting ability of the peptide, modeled mice with intraperitoneal metastasis were treated with Ce6 and the Ce6-peptide at a concentration of 5 mg/kg and autopsied 4 hours after the treatment to confirm the concentration of the substance in the tissues using an IVIS.
# [12] = tested on: CCD841 cells and MKN45 cells; experiment: Fluorescence density saturation of FITC-peptide; assay type: cell-based; conditions: FIG. 4
# Procedure: To confirm the maximum fluorescence absorption capacity of FITC-peptide, CCD841 cells and MKN45 cells were attached to each 8-well chamber. Then, the chamber was treated with the peptide at concentrations of 1, 10, 25, 50, 100, 200, 400, and 800 uM.
# [13] = tested on: MKN45 gastric cancer cells vs CCD841 normal cells; experiment: FITC fluorescence density by flow cytometer; assay type: cell-based; conditions: 25, 50, and 100 µM for 1 hour, FIGS. 5A and 5B
# Procedure: In addition, after treating each of the CCD841 cells and the MKN45 cells with FITC-peptide at a concentration of 25, 50, and 100 µM for 1 hour, the FITC fluorescence density was measured using a flow cytometer.
# [14] = molecular target: T1, LGR5 protein on gastric cancer cell …; experiment: cell fluorescence after 10 uM Ce6-peptide on AGS, MKN45 and MKN28 versus CCD841 cells
# Procedure: as §2
# [15] = 5 mg/kg tail vein, 300 mW, 9 minutes
# [16] = injected at 50 nM into the tail vein
molecule,measurement,setting,value
"chlorin e6 [Ce6, reference compound]","infiltration into the tumor compared with other organs (heart, lung, liver, spleen, kidney)",[1]; FIGS. 11A and 11B,more infiltrated into the tumor than into other organs
same,cell killing with laser irradiation,[2],cells were not killed
same,body weight during the treatment period,[3]; [15],No change in body weight was observed
same,dark toxicity,[4],significant toxicity was not induced
STCTRSR (LGR5-targeting peptide),"attachment ability, gastric cancer cell lines compared with CCD841","[5]; AGS, MKN45, MKN28 vs CCD841 normal colonic epithelial cell line",better
same,attachment ability in the MKN45 cell line,[5]; MKN45,significantly good
same,attachment ability in HEK293T kidney cells,[6],not able to be confirmed
same,fluorescence based on FITC attachment to tumor tissue,[7],significantly high
"Cy5.5-binding peptide: peptide of SEQ ID NO: 1 bound to Cy5.5, a fluorescent material (STCTRSR; also: bound to Cy5.5 (site not given here))",tumor-targeting ability compared with the control peptide group,[8],further better tumor-targeting ability
same,fluorescence density in the tumor tissue,[8]; [16],significantly high fluorescence density
same,"fluorescence in other organs (heart, lung, liver, spleen, kidney)",[8]; [16],poorly detected
"Ce6-peptide: peptide of SEQ ID NO: 1 bound to chlorin e6 (Ce6), a photosensitizer (STCTRSR; also: bound to chlorin e6 (site not given here))",ROS detection,[9],detected in a concentration-dependent manner
same,tumor-targeting ability ex vivo compared with Ce6 alone,[1],significantly better
same,concentration from which cells were rapidly killed,[2],≥ 50 nM
same,body weight during the treatment period,[3]; [15],No change in body weight was observed
same,time after the treatment at which tumor necrosis was observed,"[3]; 5 mg/kg tail vein, laser after 4 hours, 200 J, 300 mW, 9 minutes",2 days
same,tumor size compared with the other groups,"[3]; on the 7th day, 5 mg/kg plus laser, FIGS. 12A and 12B",significantly reduced
same,"fluorescence density, gastric cancer cell lines compared with normal cell line",[10],higher
same,dark toxicity,[4],significant toxicity was not induced
same,cells killed,[4]; 1 μM,60%
same,concentration in the kidney,[11]; 4 hours after the treatment,high concentration in the kidney
same,excretion from the body compared with Ce6 alone,[11]; 4 hours after the treatment,more likely to be excreted from the body
same,non-specific binding to other organs compared with Ce6 alone,[11]; 4 hours after the treatment,less likely to non-specifically bind to other organs
same,tumor-targeting ability compared with Ce6 alone,"[11]; autopsied 4 hours after the treatment, FIGS. 15A and 15B",better
"OO [hydrogen peroxide, reference compound]",ROS detection,[9],ROS was detected
negative control peptide: peptide made by randomly mixing the amino acid positions of the non-specific binding peptide sequence QLMRPPV (SEQ ID NO: 2); bound to FITC (also: bound to FITC (site not given here)) [reference compound],fluorescence based on FITC attachment to tumor tissue,[7],not confirmed
"FITC-peptide: peptide of SEQ ID NO: 1 bound to FITC, a fluorescent material (STCTRSR; also: bound to FITC (site not given here))",concentration from which fluorescence density was saturated in all cells,[12]; CCD841 and MKN45 cells,≥ 100 UM
same,concentration at which the difference in fluorescence density values between CCD841 and MKN45 cells was the largest,[12]; treated at 1 to 800 uM,25 UM
same,"FITC fluorescence density value, MKN45 compared with CCD841",[13],increased in a concentration-dependent manner
B1,"fold difference in uptake (fluorescence density), gastric cancer cell lines versus normal CCD841 cells",[14],≥ 11 times
